Measured values: patent US6472435B1, “Anti-tumor agents” (Astrazeneca AB, priority 1998, dated 2002)

Assays:
[1] = tested on: spheroidal aggregates of EMT6 murine breast cancer cells; assay: Test (c): growth inhibition of spheroidal aggregates of EMT6 murine breast cancer cells; type: cell-based; conditions: Mus musculus, 2 hours treatment, stasis of spheroid growth over 2-3 weeks, read-out: stasis ED50
Description: (c) An in vitro assay which determines the ability of a test compound to inhibit the growth in an oxygenated culture medium of spheroidal aggregates (˜400 microns in diameter) of EMT6 murine breast cancer cells. As the oxygen diffusion distance through tissue is approximately 120-150 microns, such spheroids have a chronically hypoxic central population of cells and a well oxygenated outer layer of cells. The multicellular spheroids were treated with test compounds for 2 hours as a well oxygenated suspension culture. The spheroids were subsequently washed free of test compound and selected spheroids were transferred to static culture so that the effect of treatment on volume growth could be measured. […]
EMT6 murine breast cells (obtained from P. R. Twentyman, MRC Oncology and Radiotherapeutics Unit, Cambridge, UK) were harvested from exponentially growing monolayer cultures and approximately 1×10^6 cells were used to inoculate a 500 ml spinner culture vessel containing Eagles minimal essential medium (200 ml; supplemented with 10% foetal calf serum, glutamate, non-essential amino acids, penicillin and streptomycin). […] The area of each spheroid was measured using an image analyser and the 24-well plates were transferred to a CO2 incubator at 37° C. The spheroids were then re-measured every 2-3 days for up to 21 days, with fresh culture medium (250 μl) being added to each well every 3 days. […]

[2] = tested on: T18 murine breast tumours; assay: Test (d): in vivo growth delay of T18 murine breast tumours in Balb/c mice; conditions: single bolus dose of 20 mg/kg intraperitoneally
Description: (d) An in vivo assay in a group of Balb/c mice which determines the ability of a test compound to delay the growth of T18 murine breast tumours. The detailed methodology was as follows:
T18 murine breast tumour tissue was routinely maintained by animal to animal passage. To prepare a batch of tumours for an experiment, tumour tissue was removed from several donor Balb/c mice and placed in saline. Outer tissue was removed and healthy looking regions of tumour were cut into approximately 1 mm^3 pieces and implanted subcutaneously by trocar into the left flanks of anaesthetised female Balb/c mice. After 2-3 weeks, most of the implants had grown to approximately 8 mm in diameter. The animals were placed randomly into groups of 6-7, rejecting any with very large, or small, tumours. Each test compound was dissolved in DMSO and diluted with Cremophor EL followed by saline, to give a 1:1:3 mixture of DMSO, Cremophor EL and saline. Each test compound was administered by the intraperitoneal route as a single bolus dose (0.1 ml per 10 g body weight of each animal). Control animals received vehicle alone. All mice were weighed daily and the dimensions (length and width) of each tumour were measured every 2-3 days using vernier calipers. […] Growth curves were constructed and the effect of treatment was assessed using a growth delay endpoint.

With CCCC1=C(C(C)(C)CC(=O)N(C)c2ccc(N(CCCl)CCCl)cc2)C(=O)C=C(C)C1=O [Example 1, N-{4-[bis(2-chloroethyl)amino]phenyl}-3-(5-methyl-3-propyl-1,4-benzoquinon-2-yl)-3-methyl-N-methylbutyramide] the EC50 [1] was ~4 µM and the growth delay [2] was “approximately 9 days”.
